Assay results as given in US11014925B2, “Co-crystals of 1-(4-fluoro-phenyl)-4-((6bR,1OaS)-3-methyl-2,3,6b,9,10,10a-hexahydro-1H,7H- pyrido[3′,4′:4,51_pyrrolo [1,2,3-delqcuinoxalin-8-yl)-butan-1-one with nicotinamide or isonicotinamide” (INTRA-CELLULAR THERAPIES, INC., priority 2016, dated 2021).
Read-outs that look alike come from different tables or passages of the source.

How the values were obtained:
[1] = Dynamic Vapour Sorption (DVS) hygroscopicity; format: physicochemical
Description: Dynamic Vapour Sorption (DVS): The Dynamic Vapour Sorption studies are performed using a Surface Measurement Systems Ltd. DVS-1 No Video, equipment #2126. The sample is loaded into a balance pan, typically 20-30 mg, and equilibrated at 0% RH. After the material was dried, the RH is increased with 10% per step for 1 hour per increment, ending at 95% RH. After completion of the sorption cycle, the sample was dried using the same method. The software used for data collection is DVSWin v3.01 No Video. Data analysis is performed using DVS Standard Analysis Suite v6.3.0 (Standard).

[2] = biological target: H1 histaminergic receptors (Homo sapiens, UniProt P35367); conditions: cited from earlier work
[3] = solubility, general statements; format: physicochemical; conditions: general statement, solvent not given
Description: Solubility of free base in various solvents is evaluated, and based on the results of the solubility range, suitable solvents are selected for the co-crystal screen. Co-crystal formation is based on hydrogen bonding and stacking of the molecules, meaning the co-former selection is based on active groups. Grinding is a method to form co-crystals, however the free base itself is an oil/sticky solid and therefore not suitable for this method. The free base and counter ion are added to a solution in a certain ratio to give the chance to form a co-crystal, similar to salt formation. We found the best method is to add a saturated solution of the co-former to that of the free base to find an optimal ratio for co-crystal formation.

[4] = tested on: muscarinic receptors; conditions: cited from earlier work
[5] = free base form; in water and in many organic solvents; cited from earlier work
[6] = biological target: T1, 5-HT2C receptors (Homo sapiens, UniProt P28335); conditions: cited from earlier work
T1 sequence (P28335 33-458): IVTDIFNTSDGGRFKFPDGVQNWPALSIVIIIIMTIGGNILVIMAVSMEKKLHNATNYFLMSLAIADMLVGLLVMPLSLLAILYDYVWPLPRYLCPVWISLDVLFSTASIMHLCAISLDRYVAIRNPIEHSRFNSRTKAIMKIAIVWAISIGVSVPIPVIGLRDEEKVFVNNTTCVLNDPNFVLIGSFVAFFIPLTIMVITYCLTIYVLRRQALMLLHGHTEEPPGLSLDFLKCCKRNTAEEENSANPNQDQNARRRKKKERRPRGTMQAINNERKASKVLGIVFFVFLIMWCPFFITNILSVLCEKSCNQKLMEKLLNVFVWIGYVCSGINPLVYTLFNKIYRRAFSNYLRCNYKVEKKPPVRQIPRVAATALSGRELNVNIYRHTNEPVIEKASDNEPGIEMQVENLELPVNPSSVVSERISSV

[7] = hydrochloride salt of U.S. Pat. No. 7,183,282; cited from earlier work
[8] = hydrochloride salt of U.S. Pat. No. 7,183,282; cited from earlier work; remark: listed apart in the source

H1 histaminergic receptors, sequence (P35367 whole entry): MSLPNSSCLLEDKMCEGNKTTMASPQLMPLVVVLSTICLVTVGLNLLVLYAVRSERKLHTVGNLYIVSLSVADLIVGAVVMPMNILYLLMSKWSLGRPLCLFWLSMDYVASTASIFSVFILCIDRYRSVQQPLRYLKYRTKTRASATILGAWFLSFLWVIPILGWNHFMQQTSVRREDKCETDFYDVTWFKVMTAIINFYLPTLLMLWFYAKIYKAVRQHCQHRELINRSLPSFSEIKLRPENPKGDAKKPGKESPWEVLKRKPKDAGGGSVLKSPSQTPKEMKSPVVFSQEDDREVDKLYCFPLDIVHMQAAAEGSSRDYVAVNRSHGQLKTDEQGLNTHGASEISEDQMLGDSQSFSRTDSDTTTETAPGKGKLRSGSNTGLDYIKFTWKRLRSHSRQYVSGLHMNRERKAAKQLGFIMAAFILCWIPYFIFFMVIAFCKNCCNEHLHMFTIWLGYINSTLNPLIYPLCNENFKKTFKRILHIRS

CN1CCN2c3c(cccc31)C1CN(CCCC(=O)c3ccc(F)cc3)CCC12.NC(=O)c1ccncc1 (stereo not shown)
Hygroscopicity (%) [1]: 0.2%
hygroscopicity (in words) [1]: not hygroscopic
mass uptake ([1]; at 95 RH %): 0.2%

CN1CCN2c3c(cccc31)[C@@H]1CN(CCCC(=O)c3ccc(F)cc3)CC[C@@H]12 [ITI-007, 1-(4-fluoro-phenyl)-4-((6bR,10aS)-3-methyl-2,3,6b,9,10,10a-hexahydro-1H,7H-pyrido[3′,4′:4,5]pyrrolo[1,2,3-de]quinoxalin-8-yl)-butan-1-one]
binding [2]: negligible binding
solubility [3]: poorly soluble
binding [4]: negligible binding
solubility [5]: poor solubility
binding [6]: negligible binding

CN1CCN2c3c(cccc31)C1CN(CCCC(=O)c3ccc(F)cc3)CCC12.Cl (stereo not shown) [hydrochloride salt form of ITI-007]
stability [7]: poor stability
hygroscopicity [8]: hygroscopic
